The record followed here is patent publication US20050203011A1, “Mitigating symptoms and behaviors of substance abuse by modulating GDNF or BDNF pathway activity” (The Regents of the University of California, priority 2003, published 2005).

The test system of one experiment is rats. The experiment can be described thus: Intra-VTA minipump infusion of anti-GDNF neutralizing antibodies, ethanol self-administration after ibogaine. The format is in vivo, rat. The note with it: 3 hours after ibogaine 40 mg/kg i.p., control subjects (intra-VTA mouse IgG).
For the next experiment, the system named is Trk. Briefly: Trk phosphorylation in SHSY5Y cells. Format: cell-based, human. The note with it: 10 μM ibogaine 3 hours. Here is the method: Expression of GDNF and control Actin were analyzed by RT-PCR (n=4). […] GDNF in the media was detected by an ELISA assay. Histogram depicts the mean±SD of GDNF secretion in 3 experiments. […] Ret was immunoprecipitated with anti-Ret antibodies followed by Western blot analysis with anti GFRα1 antibodies. The levels of GFRα1 in the homogenates were determined by Western blot analysis (n=3). […] Ret was immunoprecipitated followed by Western blot analysis with anti-phospho tyrosine or anti-Ret antibodies (n=3). […] Trk phosphorylation was analyzed by Western blot analysis with anti-phospho-Trk antibodies. The levels of TrkB were also determined by Western blot analysis (n=3). Panel F: Cells were pre-incubated with 0.3 unit/ml PI-PLC for 1 h (lanes 3 and 4). […] Ret phosphorylation was determined as described above (n=4). […] Treatment with 50 ng/ml GDNF was used as a positive control (lane 5). The cells were lysed and Ret phosphorylation was analyzed as described above (n=3).

Experiment [1] relates to GDNF. Briefly: GDNF expression in SHSY5Y cells (RT-PCR). The format is cell-based, human. How it is done: SHSY5Y human neuroblastoma cells were grown in Dulbecco's modified Eagle's medium (DMEM) containing 10% fetal bovine serum (FBS) plus 100 units/ml penicillin and 100 μg/ml streptomycin. Prior to experiments, the medium was replaced with DMEM containing 1% FBS.
Total RNA was isolated using Trizol reagent and reverse transcribed using Reverse Transcription System kit with the oligo (dT)15 primer at 42ûC for 30 minutes. GDNF, Actin or GPDH expressions were analyzed by RT-PCR. The GDNF primers were based on the coding frame of the human GDNF gene: upstream, 5′-TGCCAGAGGATTATCCTGATCAGTTCG ATG3′ (SEQ ID NO: 1); and downstream, 5′-TTGTCGTACGTTGTCTCAGCTGCATCGCAA-3′ (SEQ ID NO:2). The Actin primers were based on the human Actin gene: upstream, 5′-TCATGAAGTGTGACGTTGACATC-3′ (SEQ ID NO:3); and downstream, 5′-AGAAGCATTTGCGGTGGACGATG-3′ (SEQ ID NO:4). The GPDH primers were based on the rat GPDH gene: upstream, 5′-TGAAGGTCGGTGTCAACGGATTTGGC-3′ (SEQ ID NO:5); and downstream, 5′-CATGTAGGCCATGAGGTCCACCAC-3′ (SEQ ID NO:6). […]
After completion of PCR, 10 μl of each product was separated by 1.8% agarose gel in Tris/acetic acid/EDTA buffer with 0.25N^og/ml ethidium bromide, photographed by Eagle Eye II (Stratagene), and quantified by NIH Image 1.61.

Experiment [2] concerns tyrosine hydroxylase (TH). The experiment can be described thus: Tyrosine hydroxylase (TH) protein levels in SHSY5Y cells. Format: cell-based, human. The settings on record: 100 mM ethanol 24 hours, GDNF 100 ng/ml or ibogaine 10 μM added for last 12 hours. Here is the method:
Panel A: SHSY5Y cells were treated with different concentrations (0, 10, 25, and 100 mM) of ethanol for 24 hours. TH protein levels and control Actin levels were determined by Western blot analysis. Histogram depicts the mean ratio (TI/actin)±SD of 3 experiments. Panel B: Cells were treated with media (control), 100 ng/ml of GDNF for 12 h (lane 1), 100 mM ethanol for 24 hours (lane 2), or 100 mM ethanol for 24 hours to which 100 ng/ml GDNF was added for the last 12 hours (lane 3). The cells were lysed for Western blot analysis. Histogram depicts the mean ratio (TH/actin)±SD of 3 experiments. […] Histogram depicts the mean ratio (TH/actin)±SD of 3 experiments.

The next experiment relates to ERK1/2. The experiment can be described thus: ERK1/2 phosphorylation in SHSY5Y cells. The format is cell-based, human. The settings on record: 10 μM ibogaine. Here is the method: ERK2 and pERK1/2 were detected by Western blot analysis with anti-ERK2 and pERK1/2 antibodies respectively. Line-graph depicts the mean ratio (pERK2/ERK2)±SD of 3 experiments. […] Panel C: Cells were pre-incubated with 0.3 unit/ml PI-PLC for 1 h (lane 3).

For experiment [3], the system named is GDNF. Briefly: GDNF expression in the midbrain after i.p. ibogaine (RT-PCR), rats. Format: in vivo, rat. The note with it: 40 mg/kg i.p., 1, 6 or 12 h post injection. How it is done: Total RNA was isolated using Trizol reagent and reverse transcribed using Reverse Transcription System kit with the oligo (dT)15 primer at 42ûC for 30 minutes. GDNF, Actin or GPDH expressions were analyzed by RT-PCR. The GDNF primers were based on the coding frame of the human GDNF gene: upstream, 5′-TGCCAGAGGATTATCCTGATCAGTTCG ATG3′ (SEQ ID NO: 1); and downstream, 5′-TTGTCGTACGTTGTCTCAGCTGCATCGCAA-3′ (SEQ ID NO:2). The Actin primers were based on the human Actin gene: upstream, 5′-TCATGAAGTGTGACGTTGACATC-3′ (SEQ ID NO:3); and downstream, 5′-AGAAGCATTTGCGGTGGACGATG-3′ (SEQ ID NO:4). The GPDH primers were based on the rat GPDH gene: upstream, 5′-TGAAGGTCGGTGTCAACGGATTTGGC-3′ (SEQ ID NO:5); and downstream, 5′-CATGTAGGCCATGAGGTCCACCAC-3′ (SEQ ID NO:6). PCR conditions were optimized to specifically ensure that the amplification reactions are within the linear range by testing a range of 25-40 PCR cycles. The optimal numbers of cycles used were: 30 cycles for controls GPDH and actin and 35 cycles for GDNF.
Male C57B16 mice or Long Evans rats were habituated with 3 saline injections over 3 days followed by i.p. administration of 40 mg/kg ibogaine-HCl. The animals were sacrificed 1, 6 or 12 hours post injection, and brain regions were excised and stored at −80° C. until use for analysis of GDNF expression by RT-PCR.

The next experiment has as its system Male Long Evans rats. Briefly: Ethanol and sucrose self-administration in the two-bottle preference test. Format: in vivo, rat. The note with it: ibogaine i.p. From the text:
Male Long Evans rats were allowed continuous access to two bottles, one containing 10% ethanol (10 E) in tap water and the other containing tap water. […] Each subject received each dose, with one injection per week. Next, subjects were exposed to 2 bottles, one containing 10% sucrose (10 S) in tap water and the other containing tap water.

Consider 12-methoxyibogamine [ibogaine], for which the “decrease in responding for ethanol” value with rats is recorded as 79.1%. Also, the “phosphorylation state of Trk” value in the experiment with Trk was “no change”. In addition, the “duration of increase in GDNF expression” value in the experiment with GDNF [1] is recorded as “up to 12 hours”. The GDNF expression entry with GDNF [1] (10 μM, dose- and time-dependent) was “increase”. The “ethanol-induced increase in TH immunoreactivity” value in experiment [2] was “inhibited”. Also, in the experiment on ERK1/2, the “duration of ERK1/2 activation” value was “up to 6 hours” and the “phosphorylation of ERK1/2” value was “induced”. In addition, in the experiment on GDNF [3], the “expression of GDNF in the midbrain” value is “increase”. In addition, the ethanol intake entry with Male Long Evans rats (continuous access to ethanol in home cage, measured 24 hours after injection) is “reduced”. Also, in the experiment with Male Long Evans rats (continuous access, 24 hours after injection), the preference for ethanol result is recorded as “reduced”.
